These results are taken from US11123340B2, “Small-molecule UT-A-selective urea transport inhibitors” (The Regents of the University of California, priority 2014, dated 2021).

The term IC50 denotes the concentration at which inhibition is half-maximal.

One test concerns the target T1, rat UT-A1 (Rattus norvegicus, UniProt Q62668).
T1 construct: expressed in transfected cells; host or cells: MDCK cells stably co-expressing rat UT-A1, human AQP1 and YFP-H148Q/V163S
T1 sequence (Q62668 1-929): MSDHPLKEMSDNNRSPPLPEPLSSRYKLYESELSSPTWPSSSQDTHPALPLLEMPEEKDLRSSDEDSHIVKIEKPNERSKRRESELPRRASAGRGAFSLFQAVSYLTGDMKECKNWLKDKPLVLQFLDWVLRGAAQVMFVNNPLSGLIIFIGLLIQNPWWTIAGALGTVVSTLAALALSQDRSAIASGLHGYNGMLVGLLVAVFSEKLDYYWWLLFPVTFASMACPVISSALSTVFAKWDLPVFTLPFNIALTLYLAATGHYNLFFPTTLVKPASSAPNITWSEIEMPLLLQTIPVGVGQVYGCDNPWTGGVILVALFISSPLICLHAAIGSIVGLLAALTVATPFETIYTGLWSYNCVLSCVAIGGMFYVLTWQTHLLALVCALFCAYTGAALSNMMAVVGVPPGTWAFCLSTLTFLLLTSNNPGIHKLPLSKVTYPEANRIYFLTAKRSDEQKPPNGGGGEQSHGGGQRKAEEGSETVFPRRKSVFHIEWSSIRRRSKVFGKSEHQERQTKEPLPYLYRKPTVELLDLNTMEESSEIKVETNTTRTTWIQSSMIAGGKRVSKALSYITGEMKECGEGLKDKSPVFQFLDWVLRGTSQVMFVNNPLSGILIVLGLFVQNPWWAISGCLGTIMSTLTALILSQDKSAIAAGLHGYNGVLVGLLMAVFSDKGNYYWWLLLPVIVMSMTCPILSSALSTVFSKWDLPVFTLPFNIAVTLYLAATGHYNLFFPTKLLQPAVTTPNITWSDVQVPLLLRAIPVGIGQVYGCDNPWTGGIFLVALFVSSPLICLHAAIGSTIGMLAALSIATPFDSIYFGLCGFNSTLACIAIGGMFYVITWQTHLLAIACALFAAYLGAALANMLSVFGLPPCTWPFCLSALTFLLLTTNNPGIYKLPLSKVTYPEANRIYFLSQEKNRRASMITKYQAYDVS
The experiment in a line: UT-A1 inhibition, fluorescence plate reader assay in MDCK cells expressing UT-A1, AQP1 and YFP-H148Q/V163S. Format: cell-based. How it is done: Primary screening was done using a collection of 50,000 chemically diverse, drug-like compounds from ChemDiv (San Diego, Calif.). For analysis of structure-activity relationships, >300 commercially available analogs (ChemDiv and Asinex, Winston-Salem, N.C.) were tested. Cells were plated on black 96-well Costar microplates with clear plastic bottoms (Corning, Corning, N.Y.) at 15,000 cells/well and cultured for 24 h at 37° C. before assay. Microplates containing cultured cells were washed twice with PBS and 150 μL of test compound (25 μM final) in PBS was added. Eighty wells contained test compounds, and the first and last columns of each plate contained negative (dimethyl sulfoxide, DMSO) and positive (0.35 mM phloretin) controls. The assays were done on a plate reader (Tecan Trading AG, Switzerland) equipped with a custom YFP filter set. Each assay consisted of a continuous 15-s read (5 Hz) in which 50 μL of 3.2 M urea in PBS was injected at 1 s (at 130 μL/s) to give a 800 mM final urea gradient.
MDCK cells stably expressing rat UT-A1 (see, e.g., Frohlich et al. (2006) Am J Physiol Cell Physiol. 291, C600-D606), YFP-H148Q/V163 S (see, e.g., Galietta, et al. (2001) FEBS Lett. 499, 220-224) and human AQP1, as described previously (see, e.g., Esteva-Font et al. (2013) Chem Biol. 20, 1235-1244), were grown in Dulbecco's modified Eagle medium (DMEM) containing 10% fetal bovine serum (FBS), penicillin G (100 U/mL), streptomycin (100 μg/mL), zeocin (500 μg/mL), geneticin (600 μg/mL) and Hygromycin (500 μg/mL) at 37° C., 5% CO2. A Cell Clone with bright YFP fluorescence and relatively low AQP1 expression was used for the screen to maximize dynamic range.
In order to identify UT-A inhibitors suitable for testing in rats, a collection of 50,000 synthetic small molecules was screened. As diagrammed in FIG. 1A (top), the fluorescence cell-based screen utilized MDCK cells stably rat expressing UT-A1, water channel AQP1 and the cytoplasmic chloride-sensing fluorescent protein YFP-H148Q/V163S. As described and validated previously (see, e.g., Esteva-Font et al. (2013) Chem Biol. 20, 1235-1244), extracellular addition of urea results in osmotic water efflux and cell shrinking, which increases intracellular chloride concentration and reduces YFP fluorescence. Urea entry results in increasing YFP fluorescence as cells re-swell. Inhibitors of UT-A1 urea transport produce a lesser reduction in fluorescence and slowed recovery.

Another test deals with T2, rat UT-B (Rattus norvegicus, UniProt P97689).
T2 construct: endogenous in cells; host or cells: rat erythrocytes (whole rat blood)
T2 sequence (P97689 1-384): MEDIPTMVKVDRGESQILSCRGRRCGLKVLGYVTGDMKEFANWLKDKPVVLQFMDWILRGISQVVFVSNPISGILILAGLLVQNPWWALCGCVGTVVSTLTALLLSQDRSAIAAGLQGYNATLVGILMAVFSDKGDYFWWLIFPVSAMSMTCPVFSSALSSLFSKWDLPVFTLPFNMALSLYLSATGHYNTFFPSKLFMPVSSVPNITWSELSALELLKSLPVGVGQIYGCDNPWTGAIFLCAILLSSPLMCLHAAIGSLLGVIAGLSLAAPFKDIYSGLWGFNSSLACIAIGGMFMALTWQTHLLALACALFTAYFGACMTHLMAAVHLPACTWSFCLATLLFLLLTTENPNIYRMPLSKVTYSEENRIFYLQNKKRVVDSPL
The experiment in a line: UT-B inhibition, erythrocyte lysis assay. Format: cell-based. To be noted: for IC50: rat erythrocytes. The method, then: As described (see, e.g., Levin et al. (2007) FASEB J. 21, 551-563), whole rat blood was diluted to a hematocrit of ˜1.5% in PBS containing 1.25 M acetamide and 5 mM glucose. Erythrocyte suspensions (100 μL) were added to 96-well round-bottom microplates and test compounds (1 μL) were added. After 15 min incubation, 20 μL of the erythrocyte suspension was added rapidly to each well containing 180 μL of PBS. Following vigorous mixing, erythrocyte lysis was quantified by absorbance at 710 nm. Non-lysed controls (isosmolar buffer) and lysed controls (0.7 mM phloretin) were added in each plate as negative and positive controls, respectively. Percentage erythrocyte lysis was computed as: % lysis=100% (Aneg−Atest)/(Aneg−Apos), where A is absorbance at 710 nm.
Inhibitor selectivity for rat UT-A1 versus UT-B was investigated using an erythrocyte lysis assay of rat UT-B urea transport, which involved measurement of hypotonic lysis (by near-infrared absorbance) of acetamide-loaded erythrocytes following rapid dilution into acetamide-free buffer.

In the next test the test system is UT. As to conditions: literature; cited from earlier work.

For `CC(=O)Nc1ccc(-c2csc(-c3ccccc3)n2)cc1` [UTA1inh-E01], half-maximal inhibition at rat UT-A1 (IC50) was put at 3 µM. Also, on rat UT-B (rat UT-A1 versus rat UT-B), the “selectivity for UT-A1 versus UT-B” value is on record as “high selectivity”.
Regarding `CC(=O)Nc1ccc(-c2csc(C)n2)cc1` [UTA1inh-E03], the IC50 against rat UT-A1 and at rat UT-B was over 50 µM in each case.
As to `COc1ccc(C)cc1S(=O)(=O)Nc1cccc(N2CCCS2(=O)=O)c1` [UTA1inh-F01], the IC50 against rat UT-A1 came to 1 µM; on rat UT-B, 6 µM.
On to `Cc1ccc(C)c(S(=O)(=O)Nc2cccc(N3CCCS3(=O)=O)c2)c1` [UTA1inh-F02], for which the IC50 on rat UT-A1 was 15 µM; against rat UT-B, over 75 µM.
For `Cc1cc(C)c(S(=O)(=O)Nc2cccc(N3CCCS3(=O)=O)c2)cc1C` [UTA1inh-F03], in that order: 3 µM and 15 µM.
For `COc1ccc(F)cc1S(=O)(=O)Nc1cccc(N2CCCS2(=O)=O)c1` [UTA1inh-F04], in that order: 5 µM and over 75 µM.
For `COc1cc(C)c(C)cc1S(=O)(=O)Nc1cccc(N2CCCS2(=O)=O)c1` [UTA1inh-F05], in that order: 3 µM and 20 µM.
Take `Cc1ccc(C)c(S(=O)(=O)Nc2cc(N3CCCS3(=O)=O)ccc2C)c1` [UTA1inh-F06]: the values for the IC50 against rat UT-A1 and at rat UT-B were 10 µM and over 75 µM, respectively.
In the case of `COc1ccc(F)cc1S(=O)(=O)Nc1cc(N2CCCS2(=O)=O)ccc1C` [UTA1inh-F07], the IC50 on rat UT-A1 is 15 µM; against rat UT-B, over 75 µM.
Consider `COc1cc(C)c(C)cc1S(=O)(=O)Nc1cc(N2CCCS2(=O)=O)ccc1C` [UTA1inh-F08], for which the IC50 against rat UT-A1 worked out at 30 µM; against rat UT-B it was 20 µM.
`COc1ccc(N2CCCS2(=O)=O)cc1NS(=O)(=O)c1cc(C)ccc1OC` [UTA1inh-F09]: the IC50 at rat UT-A1 was determined as 1 µM; against rat UT-B, 8 µM.
As to `COc1ccc(N2CCCS2(=O)=O)cc1NS(=O)(=O)c1cc(C)ccc1C` [UTA1inh-F10], the IC50 against rat UT-A1 was 5 µM; on rat UT-B it was over 75 µM.
Consider `COc1ccc(OC)c(S(=O)(=O)Nc2ccc(Cl)c(N3CCCS3(=O)=O)c2)c1` [UTA1inh-F12], for which the midpoint of inhibition at rat UT-A1, the IC50, lay at 5 µM.
`COc1cc(C)c(C)cc1S(=O)(=O)Nc1ccc(Cl)c(N2CCCS2(=O)=O)c1` [UTA1inh-F13] had a concentration for half-maximal inhibition (IC50) against rat UT-A1 of 8 µM.
Turning to `O=C(CCc1ccc(O)cc1)c1c(O)cc(O)cc1O` [phloretin], the concentration exhibiting activity in the test on UT is reported as over 0.5 mM.
